These results are taken from PubChem BioAssay (NCI).

For this assay, the system named is MDA-MB-468 breast. Kind of assay: NCI anticancer screen, dose series, 48 h.

Each structure is given as a SMILES string.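 These data come from cells grown in 96-well plates and exposed to compound for 48 hours at five concentrations. GI50 marks 50% less growth. TGI: total growth inhibition.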

`c1ccc(Cn2cc3c(c2-c2ccccc2)CCc2cnoc2-3)cc1`: the GI50 is 2.06 µM and the TGI was found to be 8.02 µM.
Taken in the same sequence, the figures for `C[n+]1c(/C=C\c2ccc(Cl)cc2)ccc2ccccc21` were 2.36 µM and 8.37 µM.
The like results for `O=C1NN(c2ccc(C(=O)O)cc2)C(=O)/C1=C\c1ccc([N+](=O)[O-])o1` were, in that order, 22.5 µM and 57.4 µM.
The like results for `CN(C)c1ccc(N2Cc3ccccc3OC3=C2C(=O)c2c(O)ccc(O)c2C3=O)cn1` were, in that order, 0.169 µM and 0.425 µM.
On to `O=[N+]([O-])c1ccc(Br)c([N+](=O)[O-])c1`, for which the GI50 is 1.67 µM and the TGI was 3.27 µM.
Taken in the same sequence, the figures for `Cn1ccnc1C(=O)/C=C/c1ccc(C(=O)Nc2ccc(Cl)cc2)cc1` were 0.793 µM and 2.8 µM.
Taken in the same sequence, the figures for `COc1ccccc1OCC(=O)Nc1sc2c(c1C(N)=O)CCC2` were more than 100 µM and more than 100 µM.
The like results for `CC[C@H](C)[C@H]1NC(=O)[C@@H](N[C@](C)(O)[C@@H](N)CC(C)C)[C@@H](C)OC(=O)[C@H](Cc2ccc(OC)cc2)N(C)C(=O)[C@@H]2CCCN2C(=O)[C@H](CC(C)C)NC(=O)[C@@H](C)C(=O)[C@H](C(C)C)OC(=O)C[C@@H]1O` were, in that order, 0.0217 µM and 0.261 µM.
With `COc1ccc2nc(-c3cc(-c4cc(OC)c(OC)c(OC)c4)n[nH]3)[nH]c2c1`, the GI50 was 0.388 µM and the TGI stood at 4.96 µM.
The like results for `C=C1C(=O)O[C@H]2[C@H]1CC/C(COC(=O)CCCCC(=O)OC/C1=C/CC[C@@]3(C)O[C@H]3[C@H]3OC(=O)C(=C)[C@@H]3CC1)=C\CC[C@@]1(C)O[C@@H]21` were, in that order, 1.66 µM and 5.11 µM.
The like results for `COc1cc(NS(C)(=O)=O)ccc1Nc1c2ccc(Cl)cc2nc2c(OC)cccc12` were, in that order, 0.136 µM and 0.484 µM.
Taken in the same sequence, the figures for `COc1ccc2c(c1)C(=O)/C(=C/c1cccc(OCC(=O)Nc3nc4c(s3)CCCC4)c1)O2` were 0.188 µM and 0.353 µM.
With `COC(=O)Nc1nc2ccc(Oc3ccc(NC(=O)Nc4cccc(C(=O)O)c4)cc3)cc2[nH]1`, the GI50 was 0.998 µM and the TGI came out at 12.8 µM.
With `CC1=CC(=NC(=O)CBr)C=C/C1=N\S(=O)(=O)c1ccccc1`, the GI50 was 2.41 µM and the TGI was 8.01 µM.
Taken in the same sequence, the figures for `O=c1cc(-c2ccccc2)[nH]c2cc(F)c(F)cc12` were 0.384 µM and more than 100 µM.
Taken in the same sequence, the figures for `CCOc1c(Br)cc(C2C(C(=O)OC)=CN(C)C=C2C(=O)OC)cc1OC` were 37.7 µM and more than 100 µM.
Taken in the same sequence, the figures for `O=c1c2cccc(Cl)c2sc2c(NCCCNCCO)nc3ccccc3c12` were 1.19 µM and 2.98 µM.
In the case of `CC(C)(C)NC(C1=CC(C)(C)c2ccccc2C1=O)c1ccccc1` (stereo not given), the GI50 is 0.245 µM and the TGI is 1.66 µM.
The like results for `COc1ccc(N(CC(=O)NCCC[Te]c2ccccc2)C(=O)c2ccccc2)cc1` were, in that order, 4.24 µM and 17.6 µM.
Taken in the same sequence, the figures for `Cc1cc(N2CCCCC2)nc(N(CCCNc2ccnc3cc(Cl)ccc23)Cc2ccco2)n1` were 1.72 µM and 3.87 µM.
The like results for `N#C/C(=C\c1ccc(-c2ccc(Cl)cc2)o1)C(=O)Nc1ncc(Cc2ccc(Cl)cc2)s1` were, in that order, 2.38 µM and 6.49 µM.
As to `O=C1CC(c2ccc(N3CCOCC3)cc2)(c2ccsc2)NC(=O)C1Sc1ccccc1Cl` (stereo not given), the GI50 is 86.7 µM and the TGI is more than 100 µM.
The like results for `CC1=C[C@H]2c3c(c(O)c(O)c4oc5c(C)cccc5c(=O)c34)[C@H](c3cc(O)c(O)c4oc5c(C)cccc5c(=O)c34)[C@H]2C(C)(C)C1` were, in that order, 2.62 µM and 7.86 µM.
Turning to `Cn1cncc1[C@@](N)(c1ccc(Cl)cc1)c1ccc2c(c1)c(-c1cccc(Cl)c1)cc(=O)n2C`, the GI50 was 1.69 µM and the TGI was determined as 6.76 µM.
The like results for `CCCN(CCC)C(=O)C1=Cc2ccc(-c3ccc(C(=O)N4CCCC4)cc3)cc2N=C(N)C1` were, in that order, 2.56 µM and 11.8 µM.
